Data reported in US12473303B2, “4-[[(7-aminopyrazolo[1,5-a]pyrimidin-5-yl)amino methyl]piperidin-3-ol compounds and their therapeutic use” (CARRICK THERAPEUTICS LIMITED, priority 2019, dated 2025).
Read-outs that look alike come from different tables or passages of the source.

Key:
Human CDK12 wt/CycK = Human CDK12 wt/CycK (Homo sapiens (Human), UniProt Q9NYV4); assay: Radiometric protein kinase assay (33PanQinase Activity Assay), CDK12; assay type: biochemical; settings: for CDK7/CDK12: ratio greater than 1 indicated selectivity for CDK12
Protocol: (§1) A radiometric protein kinase assay (^33PanQinase® Activity Assay) was used for measuring the kinase activity of the two protein kinases (CDK12/CDK7). All kinase assays were performed in 96-well FlashPlates™ from PerkinElmer (Boston, MA, USA) in a 50 μL reaction volume.
(§2) The reaction cocktail was pipetted in four steps in the following order: • 20 μL of assay buffer (standard buffer) • 5 μL of ATP solution (in H2O) • 5 μL of test compound (in 10% DMSO) • 10 μL of substrate/10 μL of enzyme solution (premixed)
(§3) The reaction mixture was incubated at 30° C. for 60 min and then stopped by the addition of 2% (v/v) H3PO4. Plates were aspirated and washed two times with 200 μL 0.9% (w/v) NaCl. Incorporation of ^33Pi was determined with a microplate scintillation count (Microbeta, Wallac).
(§4) The fitting method used was a least-squares fit.

Human CDK7/CycH/MAT1 = Human CDK7/CycH/MAT1 (Homo sapiens (Human), UniProt P50613); assay: Radiometric protein kinase assay (33PanQinase Activity Assay), CDK7; assay type: biochemical; settings: Table 1; ATP 3 μM
Protocol: as §1, §2, §3, §4

A673 cells = assay: Cellular potency in A673 cells; assay type: cell-based; settings: for IC50: Homo sapiens, A673, Table 3, A673 cells; for Ratio of Biochemical Potency: Cellular Potency: Table 3, ratio >0.9 is an indicator of Cyclin K degradation
[1] = Table 1, ATP 0.3 μM, read-out: CDK12 IC50
[2] = Table 3, CDK12 kinase activity, read-out: Biochemical Potency IC50

Human CDK12 wt/CycK, sequence (Q9NYV4 whole entry): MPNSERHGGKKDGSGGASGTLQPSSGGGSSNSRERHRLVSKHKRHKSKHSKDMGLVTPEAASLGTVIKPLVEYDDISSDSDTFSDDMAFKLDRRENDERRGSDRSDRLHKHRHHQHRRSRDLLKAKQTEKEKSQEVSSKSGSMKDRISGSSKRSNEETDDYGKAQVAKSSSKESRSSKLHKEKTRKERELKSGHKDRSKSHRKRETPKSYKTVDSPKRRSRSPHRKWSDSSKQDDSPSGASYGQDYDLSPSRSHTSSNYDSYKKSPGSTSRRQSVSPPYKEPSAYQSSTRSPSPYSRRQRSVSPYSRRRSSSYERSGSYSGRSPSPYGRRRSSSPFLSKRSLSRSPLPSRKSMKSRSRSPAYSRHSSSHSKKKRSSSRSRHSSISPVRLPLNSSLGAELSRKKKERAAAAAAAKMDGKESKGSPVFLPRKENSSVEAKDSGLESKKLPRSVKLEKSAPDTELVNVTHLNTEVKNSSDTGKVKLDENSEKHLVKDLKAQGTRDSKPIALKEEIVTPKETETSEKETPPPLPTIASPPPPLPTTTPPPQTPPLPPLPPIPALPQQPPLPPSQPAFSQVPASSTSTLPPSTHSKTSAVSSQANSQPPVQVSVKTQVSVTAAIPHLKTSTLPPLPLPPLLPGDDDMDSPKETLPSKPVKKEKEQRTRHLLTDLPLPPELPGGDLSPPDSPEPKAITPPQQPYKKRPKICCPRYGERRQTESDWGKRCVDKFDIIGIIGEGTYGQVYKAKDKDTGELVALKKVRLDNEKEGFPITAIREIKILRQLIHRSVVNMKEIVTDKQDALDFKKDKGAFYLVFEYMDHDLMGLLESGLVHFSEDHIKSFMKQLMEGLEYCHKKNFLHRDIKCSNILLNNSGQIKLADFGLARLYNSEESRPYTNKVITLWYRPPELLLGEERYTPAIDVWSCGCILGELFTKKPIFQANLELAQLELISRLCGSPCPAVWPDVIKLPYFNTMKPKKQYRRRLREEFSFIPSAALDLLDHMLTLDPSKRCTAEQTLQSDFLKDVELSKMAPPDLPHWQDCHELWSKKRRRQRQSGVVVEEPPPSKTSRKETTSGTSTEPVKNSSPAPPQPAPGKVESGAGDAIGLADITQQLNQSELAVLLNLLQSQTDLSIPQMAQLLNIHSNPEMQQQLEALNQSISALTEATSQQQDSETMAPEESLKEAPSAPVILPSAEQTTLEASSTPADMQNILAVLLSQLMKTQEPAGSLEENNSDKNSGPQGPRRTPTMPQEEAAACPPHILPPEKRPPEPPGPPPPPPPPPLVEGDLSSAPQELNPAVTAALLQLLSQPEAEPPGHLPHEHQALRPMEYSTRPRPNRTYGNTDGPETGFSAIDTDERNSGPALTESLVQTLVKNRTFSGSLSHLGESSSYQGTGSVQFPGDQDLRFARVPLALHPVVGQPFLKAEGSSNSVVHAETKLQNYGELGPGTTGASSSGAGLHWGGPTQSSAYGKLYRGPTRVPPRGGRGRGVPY
Human CDK12 wt/CycK, sequence (O75909 whole entry partner): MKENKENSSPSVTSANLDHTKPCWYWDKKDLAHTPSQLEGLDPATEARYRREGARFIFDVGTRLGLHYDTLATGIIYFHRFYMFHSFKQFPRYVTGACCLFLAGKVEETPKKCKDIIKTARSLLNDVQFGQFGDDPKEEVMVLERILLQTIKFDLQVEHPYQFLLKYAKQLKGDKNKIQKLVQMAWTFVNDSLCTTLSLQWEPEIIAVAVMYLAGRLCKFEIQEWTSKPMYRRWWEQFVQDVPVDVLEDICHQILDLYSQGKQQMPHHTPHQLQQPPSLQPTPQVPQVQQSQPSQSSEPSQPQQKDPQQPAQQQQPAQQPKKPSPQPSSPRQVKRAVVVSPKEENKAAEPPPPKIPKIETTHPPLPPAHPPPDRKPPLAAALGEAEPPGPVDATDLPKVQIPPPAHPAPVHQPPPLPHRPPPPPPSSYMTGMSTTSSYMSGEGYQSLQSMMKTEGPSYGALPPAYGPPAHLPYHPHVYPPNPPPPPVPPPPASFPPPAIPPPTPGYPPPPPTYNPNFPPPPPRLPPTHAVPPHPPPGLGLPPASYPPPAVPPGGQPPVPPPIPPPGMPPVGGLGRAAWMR
Human CDK7/CycH/MAT1, sequence (P50613 whole entry): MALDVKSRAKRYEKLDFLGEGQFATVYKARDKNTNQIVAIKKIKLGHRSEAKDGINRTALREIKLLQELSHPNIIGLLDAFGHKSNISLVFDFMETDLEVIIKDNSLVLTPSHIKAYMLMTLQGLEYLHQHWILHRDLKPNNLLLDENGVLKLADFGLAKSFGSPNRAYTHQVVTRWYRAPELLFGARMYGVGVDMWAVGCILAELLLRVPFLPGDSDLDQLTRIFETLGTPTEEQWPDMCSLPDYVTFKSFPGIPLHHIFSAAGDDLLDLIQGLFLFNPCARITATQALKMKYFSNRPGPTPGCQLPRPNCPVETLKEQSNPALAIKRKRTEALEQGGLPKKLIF
Human CDK7/CycH/MAT1, sequence (P51946 whole entry partner): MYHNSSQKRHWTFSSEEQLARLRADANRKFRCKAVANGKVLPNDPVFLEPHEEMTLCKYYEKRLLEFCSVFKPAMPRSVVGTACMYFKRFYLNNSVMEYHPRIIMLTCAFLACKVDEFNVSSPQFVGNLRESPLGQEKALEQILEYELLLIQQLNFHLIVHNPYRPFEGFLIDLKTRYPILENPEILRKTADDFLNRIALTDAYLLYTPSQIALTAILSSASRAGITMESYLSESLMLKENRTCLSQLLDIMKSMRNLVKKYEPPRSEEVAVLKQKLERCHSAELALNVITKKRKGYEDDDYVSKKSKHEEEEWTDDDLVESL
Human CDK7/CycH/MAT1, sequence (P51948 whole entry partner): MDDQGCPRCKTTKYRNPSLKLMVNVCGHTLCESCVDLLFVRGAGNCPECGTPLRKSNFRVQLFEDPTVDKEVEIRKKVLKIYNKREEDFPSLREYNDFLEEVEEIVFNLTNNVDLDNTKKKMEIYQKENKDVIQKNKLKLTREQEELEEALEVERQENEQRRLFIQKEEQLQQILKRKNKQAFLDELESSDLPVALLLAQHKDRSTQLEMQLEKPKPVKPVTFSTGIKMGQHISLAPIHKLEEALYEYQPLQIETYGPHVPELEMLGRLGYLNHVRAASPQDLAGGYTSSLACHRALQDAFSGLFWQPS

Row | IC50 (Human CDK12 wt/CycK; [1]) [nM] | CDK7/CDK12 (Human CDK12 wt/CycK; Table 1) | IC50 (Human CDK12 wt/CycK; [2]) [nM] | IC50 (Human CDK7/CycH/MAT1) [nM] | IC50 (A673 cells) [nM] | SMILES | Ratio of Biochemical Potency: Cellular Potency (A673 cells)
1 | 50.2 | 8.19 | 50 | 411 | 8 | CC(C)c1cnn2c(NCc3cn4ccccc4n3)cc(NC[C@H]3CCNC[C@@H]3O)nc12 [H-APPAMP-003, (3R,4R)-4-(((7-((imidazo[1,2-a]pyridin-2-ylmethyl)amino)-3-isopropylpyrazolo[1,5-a]pyrimidin-5-yl)amino)methyl)piperidin-3-ol] | 6.2
2 | 20 | 7.90 | 20 | 158 | 27 | Cc1csc2nc(CNc3cc(NC[C@H]4CCNC[C@@H]4O)nc4c(C(C)C)cnn34)cn12 [H-APPAMP-007, (3R,4R)-4-[[[3-isopropyl-7-[(3-methylimidazo[2,1-b]thiazol-6-yl)methylamino]pyrazolo[1,5-a]pyrimidin-5-yl]amino]methyl]piperidin-3-ol] | 0.7
3 | 48 | 38.1 | 48 | 1830 | 4 | Cc1cc(C(F)(F)F)cc2nc(CNc3cc(NC[C@H]4CCNC[C@@H]4O)nc4c(C5CC5)cnn34)cn12 [H-APPAMP-039, (3R,4R)-4-(((3-cyclopropyl-7-(((5-methyl-7-(trifluoromethyl)imidazo[1,2-a]pyridin-2-yl)methyl)amino)pyrazolo[1,5-a]pyrimidin-5-yl)amino)methyl)piperidin-3-ol] | 12
4 | 46 | 14.1 | 46 | 650 | 9.8 | CC(C)Oc1cccc2nc(CNc3cc(NC[C@H]4CCNC[C@@H]4O)nc4c(C5CC5)cnn34)cn12 [H-APPAMP-041, (3R,4R)-4-(((3-cyclopropyl-7-(((5-isopropoxyimidazo[1,2-a]pyridin-2-yl)methyl)amino)pyrazolo[1,5-a]pyrimidin-5-yl)amino)methyl)piperidin-3-ol] | 4.7
5 | 71.5 | 9.85 | 71 | 704 | 716 | CC(C)c1cnn2c(NCc3cn4cccnc4n3)cc(NC[C@H]3CCNC[C@@H]3O)nc12 [H-APPAMP-002, (3R,4R)-4-(((7-((imidazo[1,2-a]pyrimidin-2-ylmethyl)amino)-3-isopropylpyrazolo[1,5-a]pyrimidin-5-yl)amino)methyl)piperidin-3-ol] | 0.1
6 | 65 | 5.28 | 65 | 343 | 47 | CC(C)c1cnn2c(NCc3nc4ccccc4[nH]3)cc(NC[C@H]3CCNC[C@@H]3O)nc12 [H-APPAMP-005, (3R,4R)-4-(((7-(((1H-benzo[d]imidazol-2-yl)methyl)amino)-3-isopropylpyrazolo[1,5-a]pyrimidin-5-yl)amino)methyl)piperidin-3-ol] | 1.4
7 | 33 | 5.1 | 33 | 168 | 6.3 | CC(C)c1cnn2c(NCc3cn4cc(F)ccc4n3)cc(NC[C@H]3CCNC[C@@H]3O)nc12 [H-APPAMP-011, (3R,4R)-4-(((7-(((6-fluoroimidazo[1,2-a]pyridin-2-yl)methyl)amino)-3-isopropylpyrazolo[1,5-a]pyrimidin-5-yl)amino)methyl)piperidin-3-ol] | 5.2
8 | 24 | 38.3 | 24 | 919 | 2.2 | CCc1cnn2c(NCc3cn4c(C)cccc4n3)cc(NC[C@H]3CCNC[C@@H]3O)nc12 [H-APPAMP-031, (3R,4R)-4-(((3-ethyl-7-(((5-methylimidazo[1,2-a]pyridin-2-yl)methyl)amino)pyrazolo[1,5-a]pyrimidin-5-yl)amino)methyl)piperidin-3-ol] | 11
9 | 75 | 0.3 | 75 | 19 | 7.3 | CC(C)c1cnn2c(NCc3ccc4ccccc4n3)cc(NC[C@H]3CCNC[C@@H]3O)nc12 [H-APPAMP-014, (3R,4R)-4-(((3-isopropyl-7-((quinolin-2-ylmethyl)amino)pyrazolo[1,5-a]pyrimidin-5-yl)amino)methyl)piperidin-3-ol] | 10
10 | 287 | 4.0 | 287 | 1150 | 10.4 | Cn1c(CNc2cc(NC[C@H]3CCNC[C@@H]3O)nc3c(C4CC4)cnn23)nc2cc(F)c(F)cc21 [H-APPAMP-036, (3R,4R)-4-(((3-cyclopropyl-7-(((5,6-difluoro-1-methyl-1H-benzo[d]imidazol-2-yl)methyl)amino)pyrazolo[1,5-a]pyrimidin-5-yl)amino)methyl)piperidin-3-ol] | 28
11 | 65 | 3.0 | 65 | 196 | 18.5 | Cc1cccn2cc(CNc3cc(NC[C@H]4CCNC[C@@H]4O)nc4c(C5CCC5)cnn34)nc12 [H-APPAMP-029, (3R,4R)-4-(((3-cyclobutyl-7-(((8-methylimidazo[1,2-a]pyridin-2-yl)methyl)amino)pyrazolo[1,5-a]pyrimidin-5-yl)amino)methyl)piperidin-3-ol] | 3.5
12 | 164 | 3.8 | 164 | 622 | 10.3 | Cc1cccn2cc(CNc3cc(NC[C@H]4CCNC[C@@H]4O)nc4c(C5CC5)cnn34)nc12 [H-APPAMP-022, (3R,4R)-4-(((3-cyclopropyl-7-(((8-methylimidazo[1,2-a]pyridin-2-yl)methyl)amino)pyrazolo[1,5-a]pyrimidin-5-yl)amino)methyl)piperidin-3-ol] | 16
13 | 26.9 | 4.72 | 27 | 127 | 52 | CC(C)c1cnn2c(NCc3ccc4c(c3)ncn4C)cc(NC[C@H]3CCNC[C@@H]3O)nc12 [H-APPAMP-006, (3R,4R)-4-(((3-isopropyl-7-(((1-methyl-1H-benzo[d]imidazol-5-yl)methyl)amino)pyrazolo[1,5-a]pyrimidin-5-yl)amino)methyl)piperidin-3-ol] | 0.5
14 | 48 | 31.9 | 48 | 1530 | 5.4 | Cc1cn2cc(CNc3cc(NC[C@H]4CCNC[C@@H]4O)nc4c(C5CC5)cnn34)nc2cc1C(F)(F)F [H-APPAMP-040, (3R,4R)-4-(((3-cyclopropyl-7-(((6-methyl-7-(trifluoromethyl)imidazo[1,2-a]pyridin-2-yl)methyl)amino)pyrazolo[1,5-a]pyrimidin-5-yl)amino)methyl)piperidin-3-ol] | 8.9
15 | 277 | 0.01 | 277 | 3 | 151 | Cc1ccn2c(CNc3cc(NC[C@H]4CCNC[C@@H]4O)nc4c(C(C)C)cnn34)c(C)nc2c1 [H-APPAMP-015, (3R,4R)-4-(((7-(((2,7-dimethylimidazo[1,2-a]pyridin-3-yl)methyl)amino)-3-isopropylpyrazolo[1,5-a]pyrimidin-5-yl)amino)methyl)piperidin-3-ol] | 1.8
16 | 26 | 8.2 | 26 | 214 | 21.8 | CC(C)c1cnn2c(NCc3cn4cc(Cl)ccc4n3)cc(NC[C@H]3CCNC[C@@H]3O)nc12 [H-APPAMP-012, (3R,4R)-4-(((7-(((6-chloroimidazo[1,2-a]pyridin-2-yl)methyl)amino)-3-isopropylpyrazolo[1,5-a]pyrimidin-5-yl)amino)methyl)piperidin-3-ol] | 1.2
17 | 63 | 0.6 | 143 | 40 | 8.3 | Cc1c(CNc2cc(NC[C@H]3CCNC[C@@H]3O)nc3c(C(C)C)cnn23)nc2ccccn12 [H-APPAMP-017, (3R,4R)-4-(((3-isopropyl-7-(((3-methylimidazo[1,2-a]pyridin-2-yl)methyl)amino)pyrazolo[1,5-a]pyrimidin-5-yl)amino)methyl)piperidin-3-ol] | 17.2
18 | 3200 |  |  |  |  | CC(C)c1cnn2c(NCc3ccccc3)cc(NC[C@H]3CCNC[C@@H]3O)nc12 [REF-001, reference compound] | 
19 | 597 |  |  | 11 |  | CC(C)c1cnn2c(Nc3csc4ccccc34)cc(NC[C@H]3CCNC[C@@H]3O)nc12 [REF-003, reference compound] | 
20 | 253 |  |  | 125 |  | CC(C)c1cnn2c(NCc3ccncc3)cc(NC[C@H]3CCNC[C@@H]3O)nc12 [REF-002, reference compound] | 
